The experiment addresses T1, Human IP6K1 (Homo sapiens, UniProt Q92551).
T1 construct: GST (N, cleaved yes); made in house; host or cells: C43 E. coli, pGEX-6P-2
Kind of experiment: IP6K1 high-throughput screen of the Sigma LOPAC (ADP-Glo Max, single point).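 Note: final compound concentration 10µM in 5% DMSO.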 Type of experiment: biochemical. In general terms: In ADP-Glo the light output rises with the ADP produced.

The mark [1] stands for this setting: LOPAC single-point screen, ADP-Glo Max raw signal per well.
[2] abbreviates: LOPAC single-point screen, Z-score against plate average and StDev.
Where [3] appears, read: LOPAC single-point screen, Z-score from raw signal with plate average and StDev.
[4] abbreviates: LOPAC single-point screen, ADP-Glo Max luminescence raw signal per well.
Setting [5] is: LOPAC single-point screen, Z-score relative to plate average and StDev.
Setting [6] is: Sigma LOPAC single-point screen, ADP-Glo Max raw signal per well.
[7] abbreviates: Sigma LOPAC single-point screen, Z-score from plate average and StDev.
[8] abbreviates: LOPAC single-point screen, Z-score from plate average and StDev.

Consider 54 molecules from paper PMC5706701, “Development of a homogenous high-throughput assay for inositol hexakisphosphate kinase 1 activity” (PLoS ONE, 2017).

Counter-ions that a name gives are not always drawn. Like-named read-outs stand apart in the source and are kept apart here.

T1 sequence (Q92551 whole entry): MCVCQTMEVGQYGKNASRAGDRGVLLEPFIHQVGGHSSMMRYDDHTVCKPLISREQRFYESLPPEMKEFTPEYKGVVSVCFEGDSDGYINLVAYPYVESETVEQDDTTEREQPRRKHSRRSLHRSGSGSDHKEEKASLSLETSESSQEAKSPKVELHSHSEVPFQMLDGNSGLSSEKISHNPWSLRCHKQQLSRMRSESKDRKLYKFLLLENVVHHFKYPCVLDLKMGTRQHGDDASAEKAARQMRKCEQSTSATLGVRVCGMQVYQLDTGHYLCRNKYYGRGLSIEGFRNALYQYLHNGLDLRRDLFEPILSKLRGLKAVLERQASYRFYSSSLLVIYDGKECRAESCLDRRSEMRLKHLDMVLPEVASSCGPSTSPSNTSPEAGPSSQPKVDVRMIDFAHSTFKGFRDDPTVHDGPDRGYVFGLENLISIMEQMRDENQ

Take `CCCOc1ccccc1-c1nc2nn[nH]c2c(=O)[nH]1` [Zaprinast]: under setting [1], the “Raw Signal” value was 56198. This molecule yielded a Z-score under setting [2] of 0.03384.
As for `[N-]=[N+]=Nc1ccc(C(=O)CSC[C@H](NC(=O)CC[C@H](N)C(=O)O)C(=O)NCC(=O)O)cc1` [S-(p-Azidophenacyl)glutathione], the “Raw Signal” value under setting [1] is given as 57217. The Z-score under setting [3] is given as -0.1226.
`CN(CCOc1ccc(C[C@H](Nc2ccccc2C(=O)c2ccccc2)C(=O)O)cc1)c1ccccn1` [GW1929]: the “Raw Signal” value under setting [1] was 55887. Under setting [2], this molecule displayed a Z-score of 0.1462.
On to `OCc1ccc(-c2nn(Cc3ccccc3)c3ccccc23)o1` [YC-1], for which the “Raw Signal” value under setting [1] is on record as 55059. In addition, the Z-score under setting [3] is on record as -0.1874.
`C[C@@]1(C2CCCC2)Cc2cc(OCC(=O)O)c(Cl)c(Cl)c2C1=O` [R(+)-IAA-94]: the “Raw Signal” value under setting [4] was 46670. For the same molecule, the Z-score under setting [5] is -1.298.
For `COc1ccc(CCN(C)CCCC(C#N)(c2cc(OC)c(OC)c(OC)c2)C(C)C)cc1OC.Cl` (racemic) [(±)-Methoxyverapamil hydrochloride], the “Raw Signal” value under setting [1] was found to be 52492. For the same molecule, the Z-score under setting [3] is recorded as -0.3195.
For `OC[C@H]1NC[C@@H](O)[C@@H]1O` [1,4-Dideoxy-1,4-imino-D-arabinitol], in that order: 54688 and -0.09729.
For `Cc1nc(N=Nc2ccc(C(=O)O)cc2)c(COP(=O)(O)O)c(C=O)c1O` [MRS 2159], under setting [4], the “Raw Signal” value was found to be 51283. The Z-score under setting [5] is -0.5226.
Consider `CCCN(CCC)C(=O)Cc1c(-c2ccc(Cl)cc2)nc2c(Cl)cc(Cl)cn12` [CB34], for which the “Raw Signal” value under setting [6] turned out to be 60254. Also, the Z-score under setting [7] was determined as 0.4123.
Regarding `CC(C)(C)c1o[nH]c(=O)c1CC(N)C(=O)O` (centres unmarked) [ATPA], the “Raw Signal” value under setting [1] stood at 57342. For the same molecule, the Z-score under setting [3] was -0.1006.
Regarding `O=C(O)c1cc(=O)c2c(Cl)cc(Cl)cc2[nH]1` [5,7-Dichlorokynurenic acid], the “Raw Signal” value under setting [4] worked out at 49912. In addition, the Z-score under setting [5] is given as -1.067.
As to `N[C@@H]1CONC1=O` (racemic) [DL-Cycloserine], the “Raw Signal” value under setting [1] turned out to be 55454. For the same molecule, the Z-score under setting [3] is -0.4331.
As to Picrotoxin, under setting [5], the Z-score is reported as -0.5599.
In the case of `Br.C[N+](C)(C)CCCCCNCC12CC3CC(CC(C3)C1)C2.[Br-]` [IEM-1460], the “Raw Signal” value under setting [1] is on record as 53178. Besides, under setting [3], the Z-score was -0.404.
On to `Cl.O=C(O)C1CCCN(CCC=C(c2ccccc2)c2ccccc2)C1` (centres unmarked) [SKF 89976A hydrochloride], for which the “Raw Signal” value under setting [1] came to 57225. Under setting [2], this molecule gave a Z-score of 0.2334.
As for `CNC(=O)Oc1ccc2c(c1)[C@]1(C)CCN(C)[C@@H]1N2C` [(-)-Physostigmine], the “Raw Signal” value under setting [4] is reported as 62569. Also, under setting [8], the Z-score is 1.503.
On to `O=c1cc(-c2ccc(O)cc2)oc2cc(O)cc(O)c12` [Apigenin], for which the “Raw Signal” value under setting [4] was found to be 54339. Under setting [5], the Z-score was -0.6295.
On to `COC(=O)C1=C(C)NC(C)=C([N+](=O)[O-])C1c1ccccc1C(F)(F)F` (racemic) [(±)-Bay K 8644], for which the “Raw Signal” value under setting [4] was found to be 52853. Moreover, the Z-score under setting [5] is -0.8912.
Regarding `CCN(CC)C(=S)SSC(=S)N(CC)CC` [Tetraethylthiuram disulfide], under setting [1], the “Raw Signal” value is recorded as 54661. Under setting [3], the Z-score was -0.2648.
For `CN1CCCC1c1cccnc1.O=C(O)C(O)C(O)C(=O)O` (single isomer, unassigned; (-)) [(-)-Nicotine hydrogen tartrate salt], the “Raw Signal” value was 64466 and the Z-score is 1.692.
Turning to `O=c1c2ccccc2[se]n1-c1ccccc1` [Ebselen], the “Raw Signal” value under setting [1] is recorded as 54986. Moreover, the Z-score under setting [2] is given as -0.03677.
Turning to L-Methionine sulfoximine, the “Raw Signal” value was 58334 and the Z-score is on record as 0.6621.
For the molecule `CC[C@@H]1C(=O)OC[C@@H]1Cc1cncn1C.Cl` [(+)-Pilocarpine hydrochloride], under setting [6], the “Raw Signal” value is on record as 57845. The molecule further gave a Z-score under setting [7] of 0.5799.
Take `COc1cc(OC)cc(C(CNc2ncnc3c2ncn3[C@@H]2O[C@H](CO)[C@@H](O)[C@H]2O)c2ccccc2C)c1` (some centres unmarked) [DPMA]: under setting [1], the “Raw Signal” value was determined as 54367. Besides, under setting [3], the Z-score is on record as -0.1625.
In the case of `N[C@@H](Cc1ccc(O)c(O)c1)C(=O)O` [L-3,4-Dihydroxyphenylalanine], under setting [4], the “Raw Signal” value was determined as 43363. In addition, the Z-score under setting [5] was -2.397.
With `COc1ccc(/C=C/C(=O)Nc2ccccc2C(=O)O)cc1OC` [Tranilast], the “Raw Signal” value under setting [4] came out at 68948. The molecule also gave a Z-score under setting [8] of 2.511.
As for `Clc1ccc2c(c1)C(N1CCNCC1)=Nc1ccccc1O2` [Amoxapine], the “Raw Signal” value under setting [4] was determined as 50961. In addition, under setting [5], the Z-score is reported as -1.224.
Consider `CCN(CC)CCNC(=O)c1cc(Cl)c(N)cc1OC.Cl` [Metoclopramide hydrochloride], for which, under setting [1], the “Raw Signal” value came out at 53948. The Z-score under setting [2] is listed as -0.07486.
For `O=C(CCNNC(=O)c1ccncc1)NCc1ccccc1` [Nialamide], the “Raw Signal” value under setting [1] stood at 52793. Moreover, the Z-score under setting [3] was -0.2689.
As to `CNCCCC1c2ccccc2C=Cc2ccccc21` [Protriptyline hydrochloride], the “Raw Signal” value under setting [1] was 55179. Further, the Z-score under setting [3] is on record as -0.1641.
With `CCCN(CCC)C(=O)C(CCC(=O)O)NC(=O)c1ccccc1` (centres unmarked) [Proglumide], the “Raw Signal” value under setting [1] worked out at 53192. Besides, the Z-score under setting [3] was -0.2019.
`CC(C)[N+](C)(CCOC(=O)C1c2ccccc2Oc2ccccc21)C(C)C` [Propantheline bromide]: under setting [6], the “Raw Signal” value is on record as 58434. The Z-score under setting [7] amounted to 0.4683.
Take `S=C([S-])OC1CC2CC1C1CCCC21.[K+]` [D-609 potassium]: the “Raw Signal” value under setting [1] was determined as 55448. For the same molecule, the Z-score under setting [3] is listed as -0.1119.
For the molecule `COc1ccc(OC)c(C(O)C(C)N)c1` (centres unmarked) [Methoxamine hydrochloride], the “Raw Signal” value under setting [6] came out at 57572. This molecule also had a Z-score under setting [7] of 0.5341.
Turning to `CC(C)N(CCC(=O)c1ccc2ccccc2c1)Cc1ccccc1.Cl` [ZM 39923 hydrochloride], under setting [1], the “Raw Signal” value is on record as 54461. Under setting [2], this molecule came in with a Z-score of 0.01134.
`O=c1oc(Cl)c(Cl)c2ccccc12` [3,4-Dichloroisocoumarin]: the “Raw Signal” value under setting [4] amounted to 52609. Moreover, under setting [5], the Z-score is given as -0.5195.
`CCN(CC)CC#CCOC(=O)C(O)(c1ccccc1)C1CCCCC1` (centres unmarked) [Oxybutynin Chloride]: the “Raw Signal” value under setting [1] is given as 55631. The Z-score under setting [2] came to 0.2079.
As for `C[C@H](Cc1ccccc1)Nc1ncnc2c1ncn2[C@@H]1O[C@H](CO)[C@@H](O)[C@H]1O` [R(-)-N6-(2-Phenylisopropyl)adenosine], the “Raw Signal” value under setting [6] is 58463. This molecule registered a Z-score under setting [7] of 0.6838.
Consider `Cc1cc(C)c(NC(=O)C[C@H](CC(=O)O)c2cccc3ccccc23)c(C(=O)N2CCC3(CCCC3)CC2)c1` [CR 2945], for which the “Raw Signal” value under setting [1] amounted to 55023. Also, under setting [2], the Z-score turned out to be 0.1058.
As to `O=C1NC(=O)C(c2ccccc2)(c2ccccc2)N1` [Phenytoin sodium], the “Raw Signal” value under setting [4] is 66782. In addition, the Z-score under setting [8] was 2.359.
In the case of S(-)-UH-301 hydrochloride, the “Raw Signal” value under setting [1] stood at 55198. In addition, the Z-score under setting [3] is -0.1604.
On to `Nc1nc(Cl)nc2c1ncn2[C@@H]1O[C@H](COP(=O)(O)OP(=O)(O)OP(=O)(O)O)C(O)C1O` (stereo in doubt), for which the “Raw Signal” value under setting [4] was 49196. Besides, the Z-score under setting [5] is reported as -1.213.
As for `CC(C)NCC(O)c1cc(O)cc(O)c1.CC(C)NCC(O)c1cc(O)cc(O)c1.O=S(=O)(O)O` (centres unmarked) [Metaproterenol hemisulfate], under setting [1], the “Raw Signal” value turned out to be 55094. Also, the Z-score under setting [2] is 0.1177.
With `Cl.Fc1ccc(CN(C2=NCCN2)c2c(Cl)cccc2Cl)cc1` [IMID-4F hydrochloride], the “Raw Signal” value under setting [6] is recorded as 60859. Besides, under setting [7], the Z-score came out at 1.156.
On to `CN(C)C(=O)Oc1ccc[n+](C)c1` [Pyridostigmine bromide], for which the “Raw Signal” value under setting [1] came to 56672. This molecule also had a Z-score under setting [2] of 0.1259.
Consider `O=C(O)c1ccccc1Nc1cccc(OCc2ccc3ccccc3n2)c1` [SR 2640], for which, under setting [4], the “Raw Signal” value amounted to 52929. Further, the Z-score under setting [5] is reported as -0.6013.
`CN1CCCC1c1cccnc1.Cc1ccc(C(=O)OC(C(=O)O)C(OC(=O)c2ccc(C)cc2)C(=O)O)cc1` (stereo not drawn) [(+)-Nicotine (+)-di-p-toluoyl tartrate]: the “Raw Signal” value turned out to be 52925 and the Z-score is recorded as -0.2467.
`CN1CCc2cc3c(cc2[C@H]1[C@@H]1OC(=O)c2c1ccc1c2OCO1)OCO3` [(+)-Bicuculline]: the “Raw Signal” value under setting [4] is on record as 66353. The molecule further came in with a Z-score under setting [8] of 1.4865.
As to `C[N+]1(C)CCC(OC(=O)C(c2ccccc2)c2ccccc2)CC1.[I-]` [4-DAMP methiodide], the “Raw Signal” value under setting [4] came out at 63096. Under setting [8], this molecule came in with a Z-score of 1.6103.
In the case of `OC[C@H]1O[C@@H](n2cnc3c(NCCc4ccccc4)ncnc32)[C@H](O)[C@@H]1O` [N6-2-Phenylethyladenosine], under setting [4], the “Raw Signal” value is recorded as 52095. The Z-score under setting [5] was -0.7633.
Turning to `O=C(O)CCCCCCCC(=O)O` [Azelaic acid], under setting [6], the “Raw Signal” value came out at 63677. Moreover, the Z-score under setting [7] stood at 1.015.
Turning to `COc1ccc2[nH]c(I)c(CCNC(C)=O)c2c1` [2-Iodomelatonin], the “Raw Signal” value under setting [1] came out at 55940. For the same molecule, the Z-score under setting [2] turned out to be 0.157.
Regarding `N.N.N.N.N.N.N.N.N.N.N.N.N.N.[Cl-].[Cl-].[Cl-].[Cl-].[Cl-].[Cl-].[O-2].[O-2].[Ru+3].[Ru+3].[Ru+4]` [Ruthenium red], under setting [4], the “Raw Signal” value came out at 52989. For the same molecule, the Z-score under setting [5] is given as -0.5896.
Consider `Br.COc1ccccc1N1CCN(CCCCN2C(=O)c3ccccc3C2=O)CC1` [NAN-190 hydrobromide], for which, under setting [6], the “Raw Signal” value worked out at 61226. The molecule further came in with a Z-score under setting [7] of 1.148.
